The results in this text go back to US20260355328A1, “A complex comprising a cargo and a targeting moiety binding intelectin-1” (Stichting Radboud universitair medisch centrum, priority 2022, published 2026).

Residues, ends and D or L forms follow the SMILES beside them. *: point of attachment. DOTA = O=C(O)CN1CCN(CC(=O)O)CCN(CC(=O)*)CCN(CC(=O)O)CC1

A short description of series [1]: Biodistribution of 111In-DOTA-labelled hLF variants after intravenous injection. It counts as in vivo, C57BI/6 mice. The settings on record: i.v., 4 hours. On the procedure:
Female and male 10-12-weeks-old C57BI/6 mice (Charles River) were injected via the tail vein with 50 μl of 200 μM 111 In-DOTA-labelled hLF peptides. […] Organs were collected 4 hours after injection, and radioactivity was measured in a gamma-counter. The percentage injected dose per gram of tissue (% ID/gram) was determined for each tissue and ratios between organs were calculated.

In the next series the test system is HeLa. Kind of series: Uptake in multiple cell lines (Table 2): HeLa. It counts as cell-based. The settings on record: fluorescein-labeled peptide, confocal microscopy, HeLa (human). On the procedure:
(§1) Conditionally immortalized mouse glomerular endothelial cells (mGEnC) were cultured as previously described (Rops et al. Kidney Int. 2004; 66 (6): 2193-201). HeLa cells were employed as a frequently used model cell line and were cultured in DMEM/F12 medium containing 10% fetal calf serum (FCS). For studying uptake, cells were incubated in their respective medium with 10% FCS containing fluorescein-labelled peptides at the indicated concentrations for 20 minutes at 37 °C. In some cases, cells were activated for 16 hours with 10 ng/ml mouse TNFα (Sigma), or co-incubated with Alexa Fluor 633-labeled transferrin (Invitrogen Molecular Probes). Subsequently, cells were washed with PBS and analysed using confocal laser-scanning microscopy on a TCS SP5 confocal microscope (Leica Microsystems), or detached by trypsin/EDTA and analysed on a FACSCalibur Flow cytometer (BD Biosciences) by measuring 20,000 cells.
(§2) Conditionally immortalized mouse glomerular endothelial cells (mGEnC) were cultured as previously described (Rops et al. Kidney Int. 2004; 66 (6): 2193-201). Cells were incubated in their respective medium with 10% FCS containing fluorescein-labelled peptides at 5 μM for 20 minutes at 37 °C. In some cases, cells were activated for 16 hours with 10 ng/ml mouse TNFα (Sigma), or co-incubated with 100 μg/ml Alexa Fluor 633-labeled transferrin (Invitrogen Molecular Probes). Pre-treatment with ITLN-1 or control siPool siRNA (siTools Biotech) was performed according to the manufacturer's protocol. Subsequently, cells were detached with trypsin/EDTA and analysed by flow cytometry on a FACSCalibur Flow cytometer (BD Biosciences). For immunostaining, cells or 5-μm cryosections of mouse kidney were fixed for 10 minutes with 4% paraformaldehyde, and in the indicated cases permeabilized with 0.3% Triton X-100 in PBS. […] Cells and cryosections were analyzed by confocal laser-Scanning microscopy was performed using a TCS SP5 confocal microscope (Leica Microsystems).

The subject of the next series is EOMA. Kind of series: Uptake in multiple cell lines (Table 2): EOMA. The settings on record: fluorescein-labeled peptide, confocal microscopy, EOMA (mouse). It counts as cell-based.
Another series deals with Podocytes. Briefly: Uptake in multiple cell lines (Table 2): Podocytes. Particulars: fluorescein-labeled peptide, confocal microscopy, Podocytes (mouse). Format: cell-based. On the procedure:
as §1, §2

The test system of another series is HeLa cells. Briefly: Uptake of fluorescein-labelled peptides by HeLa cells (flow cytometry). Format: cell-based, human. The settings on record: FIG. 1B. On the procedure: as §1
A further series deals with HUVEC. Briefly: Uptake in multiple cell lines (Table 2): HUVEC. It counts as cell-based. The settings on record: fluorescein-labeled peptide, confocal microscopy, HUVEC (human).
Another series relates to mGEnC treated with TNFα. Briefly: Uptake by mGEnC after activation with TNFα. Format: cell-based. Particulars: 10 ng/ml mouse TNFα 16 hours. On the procedure: as §1
(§3) Conditionally immortalized mouse glomerular endothelial cells (mGEnC) were cultured as previously described (Rops et al. Kidney Int. 2004; 66 (6): 2193-201). Cells were incubated in their respective medium with 10% FCS containing fluorescein-labelled peptides at 5 μM for 20 minutes at 37 °C. In some cases, cells were activated for 16 hours with 10 ng/ml mouse TNFα (Sigma), or co-incubated with 100 μg/ml Alexa Fluor 633-labeled transferrin (Invitrogen Molecular Probes). Pre-treatment with ITLN-1 or control siPool siRNA (siTools Biotech) was performed according to the manufacturer's protocol. Subsequently, cells were detached with trypsin/EDTA and analysed by flow cytometry on a FACSCalibur Flow cytometer (BD Biosciences). For immunostaining, cells or 5-μm cryosections of mouse kidney were fixed for 10 minutes with 4% paraformaldehyde, and in the indicated cases permeabilized with 0.3% Triton X-100 in PBS. Subsequently, cells and cryosections were stained for 1 hour with anti-intelectin-1 (R&D Systems) or anti-LRP-1 (Abcam) antibodies, and after washing incubated for 1 hour with the appropriate Alexa Fluor-labelled secondary antibody (Invitrogen Molecular Probes). Cells and cryosections were analyzed by confocal laser-Scanning microscopy was performed using a TCS SP5 confocal microscope (Leica Microsystems).

A further series has as its target T1, ITLN-1 (Mus musculus, UniProt O88310).
T1 construct: ITLN-1 siRNA versus control siRNA
Briefly: Uptake by mGEnC after downregulation of ITLN-1 with siRNA. It counts as cell-based. Particulars: peptides at 5 μM, FIG. 2E. On the procedure:
as §3

In a further series the test system is hGEnC. Kind of series: Uptake in multiple cell lines (Table 2): hGEnC. Particulars: fluorescein-labeled peptide, confocal microscopy, hGEnC (human). Format: cell-based.
Another series has as its system mGEnC. Briefly: Uptake in multiple cell lines (Table 2): mGEnC. The settings on record: fluorescein-labeled peptide, confocal microscopy, mGEnC (mouse). It counts as cell-based. On the procedure: as §1, §2
Series [2] in a line: Biodistribution of Cy5.5-hLF in LPS-induced inflammation mouse model. The settings on record: for organ with highest signal: LPS-treated and non-treated mice; for localization in the glomeruli: kidney of LPS-treated mice. It counts as in vivo, C57BI/6 mice. On the procedure:
At the start, 8- to 10-week-old C57BI/6 mice (Charles River) received an intraperitoneal injection with either 100 μl of 2 mg/kg LPS in 5% glucose solution, or only 5% glucose solution. After 24 hours, mice were injected with 50 μl of 200 μM Cy5.5-labelled peptide. Assuming a blood volume of 1.2 ml this would theoretically result in a concentration of ~8.5 μM in the circulation. After 4 hours, organs were perfused with phosphate buffer, followed by 4% PFA. Organs were removed and peptide distribution was analysed using the In Vivo Imaging System (IVIS; Perkin Elmer). Organs were then fixed by overnight incubation in 4% PFA, followed by overnight incubation in 30% sucrose. Subsequently, organs were frozen for analysis by confocal laser-Scanning microscopy using a TCS SP5 confocal microscope (Leica Microsystems). Glomerular and tubular regions were selected in microscopical pictures from which the mean fluorescence intensity was determined by ImageJ software.

The test system of series [3] is heparan sulphate on mGEnC. Kind of series: Peptide uptake by mGEnC after removal of heparan sulphate (heparinases). It counts as cell-based, mouse. Particulars: 5 μM, FIG. 1D. On the procedure:
(D) Digestion of heparan sulphate from the cell surface has a limited effect on the uptake of lactoferrin-derived peptides (5 μM). Percentage of uptake for heparan sulphate-cleaved compared to undigested cells is shown.
as §1
In order to further substantiate that uptake of hLF occurred by a mechanism different of the one typically observed for CPPs, we addressed the role of heparan sulphate proteoglycans (HSPGs).

Series [4] concerns mouse glomerular endothelial cells (mGEnC). Briefly: Uptake of fluorescein-labelled peptides by mGEnC (flow cytometry). The settings on record: different concentrations, 20 minutes at 37 °C, FIG. 1A. Format: cell-based. On the procedure:
as §1

A short description of series [5]: Biodistribution of full-length lactoferrin, lactoferricin and hLF-6 in LPS-challenged mice (IVIS). Particulars: fluorescent label, i.v., 2 h. It counts as in vivo. On the procedure: Lactoferrin and lactoferricin are cloned in an expression plasmid containing the C-terminal Sortase-sequence protein-LPETG-HHHHHH. LPETGHHHHHH is SEQ ID NO: 98. Next, the protein is expressed overnight in E. coli and purified from sonicated bacterial cell lysates by Ni-NTA beads using 400 mM imidazole to elute the proteins. After overnight dialysis, full-length lactoferrin and hLF-6 are labelled by means of a Sortase exchange reaction on the C-terminus with a fluorescent dye (Alexa647 or Cy5.5) for 2 h at 4 °C using a fluorescently labelled donor peptide (formula:biotin-GSSG-LPETG-label or biotin-GSSG-LPETG-PEG40k-label) as substrate GSSGLPETG is SEQ ID NO: 99. Excess donor peptide is removed by means of streptavidin binding of the biotin tag on the N-terminus of the donor peptide. Next, the purified labelled protein/peptide is injected into LPS-challenged mice via intravenous injection in the tail vein. Mice are sacrificed after 2 h, and organs harvested for imaging by IVIS. Biodistribution is quantified for each organ, and relative distribution is shown.

T1 sequence (O88310 19-298): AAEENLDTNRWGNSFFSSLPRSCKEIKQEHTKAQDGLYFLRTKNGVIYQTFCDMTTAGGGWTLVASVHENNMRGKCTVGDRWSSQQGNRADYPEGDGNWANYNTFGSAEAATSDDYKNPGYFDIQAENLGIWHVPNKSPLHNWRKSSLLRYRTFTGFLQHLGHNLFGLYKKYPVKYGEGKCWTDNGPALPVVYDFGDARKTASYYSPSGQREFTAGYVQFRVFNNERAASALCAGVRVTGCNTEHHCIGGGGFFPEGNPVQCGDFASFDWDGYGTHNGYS

As for `CC(C)[C@H](NC(=O)[C@H](CCCCN)NC(=O)[C@H](CCCNC(=N)N)NC(=O)CN1CCN(CC(=O)O)CCN(CC(=O)O)CCN(CC(=O)O)CC1)C(=O)N[C@@H](CCCNC(=N)N)C(=O)NCC(=O)N1CCC[C@H]1C(=O)N1CCC[C@H]1C(N)=O` [^111In-DOTA-hLF-7, ^111In-DOTA-RKVRGPP-NH2, metal not drawn] ({DOTA}-RKVRGPP-NH2), the “kidney/liver ratio (in words)” value in [1] is “still increased”. In series [1] (FIG. 5), the “localization to the kidney” value is “reduced distribution to the kidney”; the “localization to the liver and spleen” value was “reduced distribution to the liver and spleen”.

For the molecule `CC[C@H](C)[C@H](NC(=O)[C@H](CCCCN)NC(=O)[C@@H](NC(=O)[C@H](CCC(N)=O)NC(=O)[C@@H](N)CCCNC(=N)N)[C@@H](C)CC)C(=O)N[C@@H](Cc1c[nH]c2ccccc12)C(=O)N[C@@H](Cc1ccccc1)C(=O)N[C@@H](CCC(N)=O)C(=O)N[C@@H](CC(N)=O)C(=O)N[C@@H](CCCNC(=N)N)C(=O)N[C@@H](CCCNC(=N)N)C(=O)N[C@@H](CCSC)C(=O)N[C@@H](CCCCN)C(=O)N[C@@H](Cc1c[nH]c2ccccc12)C(=O)N[C@@H](CCCCN)C(=O)N[C@@H](CCCCN)C(N)=O` [penetratin, reference compound], the “Uptake (Table 2)” value with HeLa is “High”; with EOMA it was “Low”; in the series on Podocytes, “High”; with HUVEC, “High”; with hGEnC, “Low”; with mGEnC, “Low”. Besides, in the series with HeLa cells, the “uptake in HeLa cells” value was “show uptake”. Also, the “uptake after TNFα treatment by confocal microscopy” value in the series with mGEnC treated with TNFα is “barely detectable”. For the same molecule, the “increase of uptake after TNFα treatment” value in the series with mGEnC treated with TNFα (5 μM, FIG. 1E) is 50-100%. The “uptake after ITLN-1 siRNA compared to control siRNA” value (“uptake … compared to control siRNA” below) on ITLN-1 is recorded as “not affected”.

On to “Cy5.5-KCFQWQRNMRKVRGPPVSCIKR-NH2 ({Cy5.5}-KCFQWQRNMRKVRGPPVSCIKR-NH2; cysteine pairing not given here) [Cy5.5-hLF]”, for which the “organ with highest signal” value in series [2] (IVIS) is “predominant distribution in kidney and liver”. Moreover, in series [2] (IVIS, listed as Cy5.5-labeled hLF), the “organ with highest signal” value was “highest signal for the peptide was present in the kidneys, followed by the liver”. In addition, the “biodistribution to the kidney with LPS-induced inflammation” value in [2] (IVIS, i.v., 4 hours, LPS-treated mice, FIG. 4A) was “increase biodistribution to the kidney”. Further, in series [2] (all injected mice), the “urinary excretion (urine colour)” value is on record as “Urine was coloured by excreted Cy5.5-labelled peptide in all mice”. For the same molecule, in series [2] (confocal microscopy, FIG. 4B), the “fluorescence in liver, lung and spleen” value is recorded as “much lower fluorescence”; the “localization to the tubules, LPS-treated versus untreated” value is reported as “similar”; the “localization in the glomeruli” value is listed as “in glomeruli only in LPS-treated mice”. The “localization in the glomeruli” value in series [2] (confocal microscopy, FIG. 4B, listed as Cy5.5-labeled hLF) is given as “clearly pronounced”. In [2] (histology of cryosections), the “detection in the liver” value is “singular cells appeared weakly positive” and the “detection in the spleen” value is listed as “could hardly be detected”.

Consider “KCLRWQNEMRKVGGPPLSCIKR [mLF, mouse variant of hLF]”, for which the “decrease in uptake after removal of heparan sulphate” value in series [3] is recorded as ~ 20%. Further, the “Uptake (Table 2)” value is “Low” in the series on HeLa; “High” in the series on EOMA; “High” in the series on Podocytes; “High” in the series with HUVEC; “High” in the series with hGEnC; “High” in the series on mGEnC. Further, the “uptake in HeLa cells” value with HeLa cells was “only a minimal uptake and not”. Further, the “uptake in mGEnC” value in series [4] is “uptake occurred similarly to hLF”. Moreover, the “effect of TNFα treatment on uptake” value with mGEnC treated with TNFα is reported as “increased uptake”. Also, the “uptake … compared to control siRNA” value in the series with ITLN-1 is “reduced uptake”.

Consider RKVRGPPVSCIKRDS [hLF-6], for which, in series [5], the “accumulation in the kidney compared to lactoferrin and lactoferricin” value is given as “significantly greater accumulation in the kidney”.

With “transferrin: Alexa Fluor 633-labeled transferrin, marker for clathrin-mediated endocytosis [reference compound]”, in the series with mGEnC treated with TNFα, the “effect of TNFα treatment on uptake” value is “not significantly affected”. In the series with ITLN-1, the “uptake … compared to control siRNA” value is “not affected”.
